Results as given in patent publication US9855270B2, “Methods and compositions for modulating estrogen receptor mutants” (priority 2014, dated 2018).
Read-outs that look alike come from different tables or passages of the source.

Legend:
[1] = tested on: MCF-7 cells stably expressing ER-α mutants; details: UbC and EF1-derived lines; agonist mode
Method: Potency and efficacy of ERM 1-3 were measured in vitro in ER dependent transcriptional reporter assays and viability assays of MCF-7 cells stably expressing ER-α mutants.
MCF-7 Mutant ER-α Stable Cell Line Generation: MCF-7 cells stably expressing wild-type or ER-α mutants were generated by subcloning ESR1 wild-type and mutant cDNAs containing an amino terminal hemagglutinin tag into pCDH-EF1-MCS-(PGK-Puro) (referred to as EF1 HA-ER-α) and pCDH-UbC-MCS-EF1-Hygro (referred to as UbC HA-ER-α) (System Biosciences). The resulting plasmids, in addition to an empty vector negative control, were subsequently cotransfected into HEK293T cells with the pPACKH1 packaging plasmid mix (System Biosciences) according to the manufacturer's protocol. Four days post transfection lentiviral particles were purified from the cell medium, tiered and stored at −80° C. MCF-7 cells were transduced with the purified viral particles and stable cell lines were selected by growth in RPMI containing 10% FBS plus 1 μG/mL puromycin or 200 μG/mL hygromycin for pCDH-EF1-MCS-(PGK-Puro) and pCDH-UbC-MCS-EF1-Hygro, respectively.
MCF-7 Stable Cell Line Viability: MCF-7 cells were enumerated with a hemacytometer adjusted to a concentration of 40,000 cells per mL in Phenol Free RPMI containing 10% CSS with NEAA and Sodium Pyruvate. 16 microliters of the cell suspension was added to each well of a 384 well tissue culture treated white clear bottom polystyrene plate (Corning) using a Matrix 16 channel electronic pipette. The cells were incubated overnight to allow the cells to adhere. […] The “average” of the relative luminescence units (RLUs) of the wells are considered to be the baseline value at time=zero. […] The relative luminescence units (RLUs) of each well were measured, and relative proliferation (fold) of each sample was determined as follows: (RLU sample−RLU background)/(RLU at T=0)=relative proliferation
Potency and efficacy of ERM 4-23 were measured in vitro in ER dependent transcriptional reporter assays and viability assays of MCF-7 cells stably expressing ER-α mutants.

[2] = tested on: MCF-7 cells stably expressing EF1 HA-ER-α L536R; assay: cells; format: cell-based; parameters: Percent inhibition compared to vehicle: concentration or dose not given beside the values; details: EF1 HA-ER-α L536R; for Percent inhibition compared to vehicle: 5-Day Incubation; for Efficacy (Emax): Day 5 relative to Day 0; for EC50: read-out: Potency (EC50; nM)
In short: (§1)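 CellTiter-Glo read-out: background-subtracted RLU divided by day-0 RLU gives fold proliferation. Cells were MCF-7 transduced with HA-ER-α lentivirus (EF1 high or UbC low-moderate promoter) or empty vector, dosed 10 μM–5 pM for 5 days in phenol-free RPMI/10% CSS.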

[3] = tested on: MCF-7 cells stably expressing UbC HA-ER-α L536R; assay: cells; format: cell-based; parameters: Percent inhibition compared to vehicle: concentration or dose not given beside the values; details: UbC HA-ER-α L536R; for Efficacy (Emax): Day 5 relative to Day 0; for EC50: read-out: Potency (EC50; nM)
In short: (§2)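 Stable HA-ER-α MCF-7 lines are treated with compound for 5 days in phenol-free, charcoal-stripped medium. Viability is measured by CellTiter-Glo and expressed relative to the time-zero plate.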

[4] = tested on: MCF-7 cells stably expressing EF1 HA-ER-α L536P; assay: cells; format: cell-based; parameters: Percent inhibition compared to vehicle: concentration or dose not given beside the values; details: EF1 HA-ER-α L536P; for Percent inhibition compared to vehicle: 5-Day Incubation; for Efficacy (Emax): Day 5 relative to Day 0; for EC50: read-out: Potency (EC50; nM)
In short: as §1

[5] = tested on: MCF-7 cells stably expressing EF1 HA-ER-α Y537N; assay: cells; format: cell-based; parameters: Percent inhibition compared to vehicle: concentration or dose not given beside the values; details: EF1 HA-ER-α Y537N; for Percent inhibition compared to vehicle: 5-Day Incubation; for Efficacy (Emax): Day 5 relative to Day 0; for EC50: read-out: Potency (EC50; nM)
In short: as §1

[6] = tested on: MCF-7 cells stably expressing UbC HA-ER-α L536P; assay: cells; format: cell-based; parameters: Percent inhibition compared to vehicle: concentration or dose not given beside the values
In short: as §2

[7] = tested on: MCF-7 cells stably expressing UbC HA-ER-α E380Q; assay: cells; format: cell-based; parameters: Percent inhibition compared to vehicle: concentration or dose not given beside the values; details: UbC HA-ER-α E380Q; for Percent inhibition compared to vehicle: 5-Day Incubation; for EC50: read-out: Potency (EC50; nM)
In short: as §1

[8] = tested on: MCF-7 cells stably expressing EF1 HA-ER-α E380Q; assay: cells; format: cell-based; parameters: Percent inhibition compared to vehicle: concentration or dose not given beside the values; details: EF1 HA-ER-α E380Q; for Percent inhibition compared to vehicle: 5-Day Incubation; for Efficacy (Emax): Day 5 relative to Day 0; for EC50: read-out: Potency (EC50; nM)
In short: as §2

[9] = tested on: MCF-7 cells stably expressing UbC HA-ER-α Y537N; assay: cells; format: cell-based; parameters: Percent inhibition compared to vehicle: concentration or dose not given beside the values; details: UbC HA-ER-α Y537N; for Percent inhibition compared to vehicle: 5-Day Incubation; for Efficacy (Emax): Day 5 relative to Day 0; for EC50: read-out: Potency (EC50; nM)
In short: as §2

[10] = Antagonist Mode, −E2 (Table 27)
[11] = Antagonist Mode, +E2, 5-Day Incubation

CCC(=C(c1ccc(O)cc1)c1ccc(OCCN(C)C)cc1)c1ccccc1 [4-Hydroxytamoxifen]
efficacy compared with fulvestrant and ERM 4-23 (in words) [1]: reduced efficacy on all the mutations tested | Percent inhibition compared to vehicle ([2]; Agonist Mode, −E2): 43% | Efficacy (Emax) ([2]; Agonist Mode, −E2): 3.91 ± 0.04 | EC50 ([2]; Agonist Mode, −E2): 7.14 ± 6.64 nM | Percent inhibition compared to vehicle ([2]; Antagonist Mode, +E2): 47% | Efficacy (Emax) ([2]; Antagonist Mode, +E2): 3.65 ± 0.29 | EC50 ([2]; Antagonist Mode, +E2): 19 ± 18.2 nM | EC50 [2, 10]: 7.14 ± 6.64 nM | Efficacy (Emax) ([3]; Agonist Mode, −E2): 2.26 ± 0.36 | EC50 ([3]; Agonist Mode, −E2): 1.06 ± 0.714 nM | Percent inhibition compared to vehicle [3, 11]: 61% | Efficacy (Emax) ([3]; Antagonist Mode, +E2): 2.34 ± 0.18 | EC50 ([3]; Antagonist Mode, +E2): 6.09 ± 4.42 nM | Percent inhibition compared to vehicle ([4]; Agonist Mode, −E2): 58% | Efficacy (Emax) ([4]; Agonist Mode, −E2): 3.47 ± 0.03 | EC50 ([4]; Agonist Mode, −E2): 4.39 ± 0.723 nM | Percent inhibition compared to vehicle ([4]; Antagonist Mode, +E2): 60% | Efficacy (Emax) ([4]; Antagonist Mode, +E2): 3.64 ± 0.26 | EC50 ([4]; Antagonist Mode, +E2): 9.22 ± 0.546 nM | EC50 [4, 10]: 4.39 ± 0.723 nM | Percent inhibition compared to vehicle ([5]; Agonist Mode, −E2): 60% | Efficacy (Emax) ([5]; Agonist Mode, −E2): 2.43 ± 0.13 | EC50 ([5]; Agonist Mode, −E2): 6.04 ± 1.36 nM | Percent inhibition compared to vehicle ([5]; Antagonist Mode, +E2): 57% | Efficacy (Emax) ([5]; Antagonist Mode, +E2): 2.39 ± 0.24 | EC50 ([5]; Antagonist Mode, +E2): 5.25 ± 2.84 nM | EC50 [5, 10]: 6.04 ± 1.36 nM | Percent inhibition compared to vehicle ([6]; Agonist Mode, −E2, 5-Day Incubation): 35% | Efficacy (Emax) ([6]; Agonist Mode, −E2, Day 5 relative to Day 0): 2.06 ± 0.19 | EC50 ([6]; Agonist Mode, −E2, read-out: Potency (EC50; nM)): 0.821 ± 0.726 nM | Percent inhibition compared to vehicle [6, 11]: 61% | Efficacy (Emax) ([6]; Antagonist Mode, +E2, Day 5 relative to Day 0): 2.31 ± 0.27 | EC50 ([6]; Antagonist Mode, +E2, read-out: Potency (EC50; nM)): 2.13 ± 4.68 nM | Percent inhibition compared to vehicle ([7]; Agonist Mode, −E2): 44% | EC50 ([7]; Agonist Mode, −E2): 1.59 ± 0.681 nM | Percent inhibition compared to vehicle ([7]; Antagonist Mode, +E2): 66% | EC50 ([7]; Antagonist Mode, +E2): 4.92 ± 0.671 nM | Percent inhibition compared to vehicle ([8]; Agonist Mode, −E2): 21% | Efficacy (Emax) ([8]; Agonist Mode, −E2): 5.17 ± 0.26 | EC50 ([8]; Agonist Mode, −E2): 26 ± 9.12 nM | Percent inhibition compared to vehicle ([8]; Antagonist Mode, +E2): 19% | Efficacy (Emax) ([8]; Antagonist Mode, +E2): 5.03 ± 0.85 | EC50 ([8]; Antagonist Mode, +E2): 65.4 ± 24.4 nM | EC50 [8, 10]: 26 ± 9.12 nM | Percent inhibition compared to vehicle ([9]; Agonist Mode, −E2): 46% | Efficacy (Emax) ([9]; Agonist Mode, −E2): 2.34 ± 0.29 | EC50 ([9]; Agonist Mode, −E2): 1.58 ± 0.955 nM | Percent inhibition compared to vehicle ([9]; Antagonist Mode, +E2): 65% | Efficacy (Emax) ([9]; Antagonist Mode, +E2): 2.27 ± 0.07 | EC50 ([9]; Antagonist Mode, +E2): 5.03 ± 0.765 nM
